Measurements from US20230357275A1, “SPIRO-SULFONAMIDE DERIVATIVES AS INHIBITORS OF MYELOID CELL LEUKEMIA-1 (MCL-1) PROTEIN” (Prelude Therapeutics, Incorporated, priority 2020, published 2023).
pIC50, pKi: −log10 of the molar value.

Tests used:
H929 cells = test: Cell viability assay (H929 10 FBS); format: cell-based; conditions: Homo sapiens, NCI-H929, 24 hours, CellTiTer-Glo or ATPlite, read-out: H929_10FB S IC50
Method: Dispense 10 µL aliquot of prepared H929 cells (1:1 ratio of cells:Trypan Blue (#1450013, Bio-Rad)) onto cell counting slide (#145-0011, Bio-Rad) and obtain cell density and cell viability using cell counter (TC20, Bio-Rad). Remove appropriate volume of resuspended cells from culture flask to accommodate 4000 cells/well @ 10 µL/well. Transfer H929 cells to 50 mL conical (#430290, Corning). Spin down at 1000 rpm for 5 min using tabletop centrifuge (SPINCHRON 15, Beckman). Discard supernatant and resuspend cell pellet in modified RPMI 1640 (#10-040-CV, Coming) cell culture media containing 10% FBS (F2422-500 ML, Sigma), sodium pyruvate (100 mM) (#25-000-CL, Corning), HEPES buffer (1 M) (#25-060-CL, Coming) and glucose (200 g/L) (A24940-01, Gibco) to a cell density of 400,000 cells/mL. Dispense 10 µL of resuspended H929 cells per well in 384-well small volume TC treated plate (#784080, Greiner Bio-one) using standard cassette (#50950372, Thermo Scientific) on Multi-drop Combi (#5840310, Thermo Scientific) in laminar flow cabinet. Dispense compounds onto plates using digital liquid dispenser (D300E, Tecan). Incubate plates in humidified tissue culture incubator @ 37° C. for 24 hours. […] Read plates with microplate reader (PheraStar, BMG Labtech) using 384 well luminescence mode.

MCL-1 = molecular target: T1, MCL-1 (Homo sapiens, UniProt Q07820); test: Cell free Mcl-1:Bim affinity assay (Mcl-1 Bim), fluorescence polarization competition; format: binding; conditions: 15 nM MCL-1, 5 nM FITC-Bim tracer, 1 hour at room temperature; Ki calculated from IC50 by Nikolovska-Coleska's equation; read-out: BIM_ Ki
T1 construct: purchased BPS Bioscience
T1 sequence (Q07820 whole entry): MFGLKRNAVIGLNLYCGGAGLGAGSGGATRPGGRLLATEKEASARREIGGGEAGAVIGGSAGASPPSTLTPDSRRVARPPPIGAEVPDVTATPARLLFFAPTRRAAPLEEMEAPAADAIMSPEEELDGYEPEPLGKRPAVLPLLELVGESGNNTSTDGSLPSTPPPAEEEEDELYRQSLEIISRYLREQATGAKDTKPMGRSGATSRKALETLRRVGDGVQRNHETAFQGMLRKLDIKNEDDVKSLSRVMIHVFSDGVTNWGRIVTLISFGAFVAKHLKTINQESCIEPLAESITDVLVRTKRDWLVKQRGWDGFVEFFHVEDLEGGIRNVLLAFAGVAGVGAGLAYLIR
Method: The binding affinity of each compound was measured via a fluorescence polarization competition assay, in which the compound competes for the same binding site with the ligand, and thus leads to a dose-dependent anisotropy reduction. The tracer ligand utilized was a fluorescein isothiocyanate labelled peptide (FITC-[…]) derived from Bim (GenScript).
The assay was carried out in black half-area 96-well NBS plate (Coming), containing 15 nM of MCL-1 (BPS Bioscience), 5 nM of FITC-Bim and 3-fold serial diluted test compounds in a total volume of 50 µL of assay buffer (20 mM HEPES, 50 mM NaCl, 0.002% Tween 20, 1 mM TCEP, and 1% DMSO). The reaction plate was incubated for 1 hour at room temperature. The change of anisotropy is measured with an Envision multimode plate reader (PerkinElmer) at emission wavelength 535 nm. Fluorescence polarization was calculated in mP unit and the percentage inhibition was calculated by % inhibition = 100x(mPDMSO-mP)/(mPDMSO-mPPC), in which mPDMSO is the DMSO control, and mPPC is the positive control. IC50 values were determined from a 10-point dose response curve by fitting the percent inhibition against compound concentration using the GraphPad Prism software. The inhibition constant Ki was subsequently calculated according to the Nikolovska-Coleska’s equation (Anal. Biochem., 2004, 332, 261), […]

**Q.** Which results are given for `CN(C)C(=O)O[C@H]1/C=C/COC(C)(C)C(=O)NS(=O)(=O)c2ccc3c(c2)N(C[C@@H]2CC[C@H]21)C[C@@]1(CCCc2cc(Cl)ccc21)CO3` [Example 34, [(3R,6R,7S,8E,22S)-6′-Chloro-12,12-dimethyl-13,15,15-trioxo-spiro [11,20-dioxa-15-thia-1,14-diazatetracyclo[14.7.2.03,6.019,24]pentacosa-8,16,18,24-tetraene-22,1′-tetralin]-7-yl] N,N-dimethylcarbamate]?
**A.** pIC50 (H929 cells): > 6.30; pKi (MCL-1): > 9.00
